In PMC12395000 (RSC Advances, 2025):
Each block holds one molecule with its values, some of them ahead of it.

Legend:
WI-38 cells = assay: MTT cytotoxicity assay, normal WI-38; format: cell-based; conditions: Homo sapiens, WI-38, 48 h, read-out: IC50 ± SD
EGFR = EGFR (Homo sapiens, UniProt P00533); assay: EGFR kinase inhibitory assay; format: biochemical; conditions: for IC50: EGFR IC50 ± SD
HCT-116 cancer cells = assay: MTT cytotoxicity assay, HCT-116; format: cell-based; conditions: Homo sapiens, HCT-116, 48 h, read-out: IC50 ± SD
HCT-116 cells [1] = assay: DNA-content cell cycle analysis by flow cytometry; format: cell-based; conditions: HCT-116, IC50 = 1.34 μM, 48 h; control 54.19%
[2] = tested on: P53, Bax, caspase-3, caspase-8, caspase-9, Bcl-2 genes in HCT-116 cells; assay: RT-PCR gene expression of apoptosis-related genes; format: cell-based; conditions: HCT-116, IC50 = 1.34 μM, 48 h
HCT-116 cells [3] = assay: Annexin V/PI staining flow cytometry; format: cell-based
[4] = three replicates, concentrations 0.001-10 μM

Sequence of EGFR (P00533 25-1210): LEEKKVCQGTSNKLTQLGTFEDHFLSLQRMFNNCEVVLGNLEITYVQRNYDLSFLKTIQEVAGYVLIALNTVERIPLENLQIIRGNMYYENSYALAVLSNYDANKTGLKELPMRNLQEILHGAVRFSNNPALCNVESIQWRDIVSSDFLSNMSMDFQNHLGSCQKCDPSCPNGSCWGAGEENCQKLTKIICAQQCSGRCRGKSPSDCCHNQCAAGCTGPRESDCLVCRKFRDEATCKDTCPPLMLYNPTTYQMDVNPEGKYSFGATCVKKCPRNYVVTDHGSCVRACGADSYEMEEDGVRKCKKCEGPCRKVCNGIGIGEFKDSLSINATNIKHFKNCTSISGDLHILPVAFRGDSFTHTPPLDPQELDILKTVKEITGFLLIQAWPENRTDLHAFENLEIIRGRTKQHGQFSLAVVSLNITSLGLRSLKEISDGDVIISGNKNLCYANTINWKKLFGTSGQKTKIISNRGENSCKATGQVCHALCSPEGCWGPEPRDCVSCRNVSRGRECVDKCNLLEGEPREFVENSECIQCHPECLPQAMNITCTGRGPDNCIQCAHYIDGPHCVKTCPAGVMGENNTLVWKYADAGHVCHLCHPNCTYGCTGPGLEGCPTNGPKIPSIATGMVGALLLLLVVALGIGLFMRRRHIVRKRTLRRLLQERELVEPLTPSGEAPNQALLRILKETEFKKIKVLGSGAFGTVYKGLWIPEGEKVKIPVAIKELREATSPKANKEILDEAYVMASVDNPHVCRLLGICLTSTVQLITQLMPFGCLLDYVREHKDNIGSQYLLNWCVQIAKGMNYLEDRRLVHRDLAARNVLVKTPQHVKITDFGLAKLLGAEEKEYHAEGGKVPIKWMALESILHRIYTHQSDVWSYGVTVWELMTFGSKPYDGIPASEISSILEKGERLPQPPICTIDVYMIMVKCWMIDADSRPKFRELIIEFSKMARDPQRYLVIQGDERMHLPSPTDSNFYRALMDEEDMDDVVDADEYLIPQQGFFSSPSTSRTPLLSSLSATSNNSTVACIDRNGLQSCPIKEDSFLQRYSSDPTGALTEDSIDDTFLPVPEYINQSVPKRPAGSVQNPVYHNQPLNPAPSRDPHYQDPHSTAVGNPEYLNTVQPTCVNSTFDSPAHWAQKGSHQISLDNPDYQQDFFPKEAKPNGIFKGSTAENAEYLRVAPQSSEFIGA

SMILES: Cc1[nH]c(=O)nc2c1c(=O)oc1ccc3ccccc3c12 [Compound 16, 4-Methyl-2H-benzo[5,6]chromeno[4,3-d]pyrimidine-2,5(3H)-dione]
- IC50 (WI-38 cells): ≥ 50 µM
- EGFR IC50 ± SD (EGFR; [4]): non-detected
- IC50 (HCT-116 cancer cells): 6.46 µM

SMILES: C#Cc1cccc(Nc2ncnc3cc(OCCOC)c(OCCOC)cc23)c1 [Erlotinib, reference compound]
- IC50 (WI-38 cells): ≥ 50 µM
- IC50 (HCT-116 cancer cells): 1.32 ± 0.2 µM

More lines, main results first:

- IC50 (EGFR; [4]): 0.104 ± 0.00567 µM
- EGFR inhibition percentage (EGFR; concentration not given): 82.3%
SMILES: CC1=C(C(=O)Nc2ccccc2)C(c2ccc3ccc4cccc5ccc2c3c45)NC(=S)N1 (stereo not drawn) [Compound 4a, 6-Methyl-N-phenyl-4-(pyren-1-yl)-2-thioxo-1,2,3,4-tetrahydropyrimidine-5-carboxamide]
- IC50 (WI-38 cells): ≥ 50 µM
- IC50 (HCT-116 cancer cells): 4.8 µM

- IC50 (EGFR; [4]): 0.077 ± 0.00436 µM
SMILES: CC1=C(C(=O)Nc2ccccn2)C(c2ccc3ccc4cccc5ccc2c3c45)NC(=S)N1 (stereo not drawn) [Compound 4b, 6-Methyl-4-(pyren-1-yl)-N-(pyridin-2-yl)-2-thioxo-1,2,3,4-tetrahydropyrimidine-5-carboxamide]
- cell population at G1-phase (%DIP G1) (HCT-116 cells [1]): 87.55%
- Bax gene expression fold change [2]: 3.54 fold change
- P53 gene expression fold change [2]: 6.85 fold change
- caspase-3 gene expression fold change [2]: 8.37 fold change
- caspase-8 gene expression fold change [2]: 2.3 fold change
- caspase-9 gene expression fold change [2]: 6.80 fold change
- Bcl-2 gene expression fold change ([2]; antiapoptotic gene, decreased): 0.37 fold change
- IC50 (WI-38 cells): ≥ 50 µM
- apoptosis induction versus control (HCT-116 cells [3]; HCT-116): 30.2 fold
- necrosis (HCT-116 cells [3]; HCT-116, IC50 = 1.34 μM, 48 h, Q1, control 2.13%): 5.58%
- late apoptosis (HCT-116 cells [3]; HCT-116, IC50 = 1.34 μM, 48 h, Q2): 7.36%
- early apoptosis (HCT-116 cells [3]; HCT-116, IC50 = 1.34 μM, 48 h, Q4): 19.24%
- cells that died by apoptosis (total) (HCT-116 cells [3]; HCT-116, treated at IC50 = 1.34 μM, 48 h, control 0.88%): 26.60%
- IC50 (HCT-116 cancer cells): 1.34 ± 0.4 µM

- IC50 (EGFR; [4]): 0.0949 ± 0.00495 µM
SMILES: CC1=C(C(=O)Nc2cccnc2)C(c2ccc3ccc4cccc5ccc2c3c45)NC(=S)N1 (stereo not drawn) [Compound 4c, 6-Methyl-4-(pyren-1-yl)-N-(pyridin-3-yl)-2-thioxo-1,2,3,4-tetrahydropyrimidine-5-carboxamide]
- IC50 (WI-38 cells): ≥ 50 µM
- IC50 (HCT-116 cancer cells): 1.9 ± 0.3 µM
